Test results from patent EP0201420A1, “2-(2-Acetamido-2-deoxy-3-O-D-glucopyranosyl)-alkanoyl-aminoacyl-nor leucin glycopeptides or derivatives of these glycopeptides, and immunoadjuvant compositions containing them” (ANVAR Agence Nationale de Valorisation de la Recherche, priority 1985, dated 1986).

What follows are compounds tested on réponse humorale de la souris swiss femelle à la sérumalbumine bovine (assay: Immunoadjuvant activity: humoral antibody response to bovine serum albumin, measured by passive haemagglutination). Conditions: 100 µg per mouse s.c. with 0,5 mg bovine serum albumin in aqueous solution; primary response day 28, secondary response day 36.
Type: in vivo
Experimental: L'activité immunoadjuvante a été étudiée en mettant en jeu la réponse humorale de la souris swiss femelle à la sérumalbumine bovine.
Des groupes de huit souris âgées de 2 mois reçoivent par voie sous-cutanée 0,5 mg de sérumalbumine bovine avec ou sans les substances à tester, à raison de 100 µg par souris. Les administrations sont faites en solution aqueuse.
Au jour 28, on effectue des prélèvements du sérum sanguin sur les souris traitées et la réponse primaire en anticorps est déterminée par hémagglutination passive en utilisant des hématies de moutons traitées à la formaline et recouvertes de l'antigène étudié selon la méthode décrite par A. A. HIRATA et M.V. BRANDISSE (5. immunol.100, 541 - 648, 1968). Au jour 30 les souris reçoivent une injection de rappel avec les antigènes seuls (100 µg par souris) et au jour 36 on mesure la réponse secondaire induite par la même technique de mesure .
Les résultats de ces essais figurent dans le tableau 1 qui suit. Ce tableau contient également les résultats mesurés dans les mêmes conditions chez les animaux témoins et chez des animaux qui ont été traités de la même manière avec le MDP à titre de substance de comparaison.
In the case of CCCC[C@@H](NC(=O)[C@H](C)NC(=O)[C@@H](C)O[C@H]1[C@H](O)[C@@H](CO)OC(O)[C@@H]1NC(C)=O)C(N)=O (stereo partly drawn) [compound 1], the activité immunoadjuvante is reported as “n'a pas témoigné d'une activité spécifique”. For CCCCOC(=O)[C@@H](CCCC)NC(=O)[C@H](C)NC(=O)[C@@H](C)O[C@H]1[C@H](O)[C@@H](CO)OC(O)[C@@H]1NC(C)=O (stereo partly drawn) [compound 2], the activité immunoadjuvante was “une activité qui se rapproche sensiblement”. CCCCOC(=O)[C@@H](CCCC)NC(=O)[C@H](C)NC(=O)CO[C@H]1[C@H](O)[C@@H](CO)OC(O)[C@@H]1NC(C)=O (stereo partly drawn) [compound 5] was tested, and the activité immunoadjuvante was “une activité qui se rapproche sensiblement”. For CCCC[C@@H](NC(=O)[C@H](C)NC(=O)[C@@H](C)O[C@H]1[C@H](O)[C@@H](CO)OC(O)[C@@H]1NC(C)=O)C(=O)OC (stereo partly drawn) [compound 6], the activité immunoadjuvante was “une activité qui se rapproche sensiblement”.

Each compound was assayed on globules rouges de mouton (assay: Immunosuppression test: high dose given before sheep red blood cells, haemolytic plaques of splenocytes counted (Cunningham method)). Conditions: 1 mg per mouse 2 days before 10^8 sheep red blood cells; splenocytes taken 4 days after; experiment repeated 3 times.
Type: in vivo, souris
Experimental: Dans l'expérience qui figure au tableau Ibis et qui a été répétéa 3 fois, le MDP et les autres substances ont été injectés à des souris à une dose 10 ou 20 fois plus élevée que d'habitude (1 mg) 2 jours avant l'injection de 10^8 globules rouges de mouton. Les splénocytes ont été pélevés et mis en culture 4 jours après l'injection de globules rouges de mouton et le nombre de plages hémolytiques dosées selon la méthode de Cunningham.
CC(=O)N[C@H]1C(O)O[C@H](CO)[C@@H](O)[C@@H]1O[C@H](C)C(=O)N[C@@H](C)C(=O)N[C@H](CCC(=O)O)C(N)=O (stereo partly drawn) [MDP, N-acétyl-muramyl-L-alanyl-D-isoglutamine] was tested, and the “inhibition de la production d'anticorps (nombre de plages hémolytiques)” value was “inhibe totalement la production d'anticorps”. In the case of CCCCOC(=O)[C@@H](CCC(N)=O)NC(=O)[C@H](C)NC(=O)[C@@H](C)O[C@H]1[C@H](O)[C@@H](CO)OC(O)[C@@H]1NC(C)=O (stereo partly drawn) [murabutide], the “inhibition de la production d'anticorps (nombre de plages hémolytiques)” value is reported as “inhibe totalement la production d'anticorps”.
